Results from patent publication US20210046125A1, “DECELLULARIZED TISSUES, HYDROGELS THEREOF, AND USES THEREOF” (UNIVERSITY OF FLORIDA RESEARCH FOUNDATION, priority 2018, published 2021).

Assays:
[1] = system: peripheral nerve tissue; test: Induction of apoptosis ex vivo (active caspase 3 immunochemistry, TUNEL); design: species or system Sprague Dawley rats; conditions: 10 μM camptothecin, 37° C., 2 days
Protocol: Peripheral nerves were harvested from Sprague Dawley rats and decellularized according to an apoptosis-assisted protocol using 10 μM camptothecin in non-supplemented media at 37° C. for 2 days. Tissue in media without camptothecin was used as a control. Apoptotic agent treatment was succeeded by washes in saline buffered solutions to optimize cell removal. The degree of apoptosis, cellular removal, and matrix preservation was assessed using immunochemistry on nerve tissue sections and fluorescence imaging. Antibodies used to identify apoptosis, cell removal, and tissue preservation include those against active caspase 3 (Abcam); neurofilament (RT-97, DSHB) and 5100 (Dako); and laminin (Sigma), respectively, Apoptosis-mediated DNA fragmentation was assessed using a terminal deoxynucleotidyl transferase dUTP nick end labeling (TUNEL) assay. Total DNA content was quantified using a Picogreen DNA assay (Life Technologies) according to manufacturer's instructions. […] For FIGS. 5A and 5B, the images are fresh nerve (top half) and apoptosis decellularized nerve (bottom half). FIG. 5A was labeled for neurons (neurofilament, green), Schwann cells (S100, red), and nuclei (DAPI, blue). […] Induction of apoptosis was confirmed in treated nerve tissue by an increase in active caspase 3, an early mediator of apoptosis. […]

[2] = system: rat sciatic nerve; test: QuantiFluor dsDNA assay, residual DNA content in tissue; conditions: apoptosis decellularization, QuantiFluor dsDNA kit
Excerpt: (§1) Briefly, the injectable tissue hydrogels of this Example were generated by digesting rat sciatic nerves that had been decellularized by inducing cell […] (or apoptosis). Apoptosis can cause cells to form small apoptotic bodies containing cellular components, which can be more easily removed from the matrix. This approach has the potential to enhance matrix preservation and bioactivity, thus having a major impact on tissue engineering. In this Example, rat sciatic nerves were first harvested and decellularized by inducing apoptosis (described elsewhere herein and e,g. FIG. 11). Washing in camptothecin can induce apoptosis. Hypertonic washing (e,g. 4× PBS) can aid in cell removal. DNase treatment can degrade residual DNA content. Treatment with Chondroitinase ABC can be used to remove inhibitory proteoglycans. After the decellularization process, the resulting decellularized tissue can undergo enzymatic processing and further processing to balance pH where necessary. In some cases the decellularized tissue can be lyophilized prior to enzymatic digestion. In this particular example, pepsin was used to digest tissue at an acidic pH. After about […] of enzymatic digestion, the solution can be neutralized and isotonically balanced. The solution was further diluted with PBS. In some embodiments, the solution was diluted to 1/9 th of its volume in 10× PBS. […]

[3] = system: rat sciatic nerve; test: TUNEL assay, preliminary studies; conditions: samples treated with camptothecin
Excerpt: as §1

[4] = system: peripheral nerve tissue; test: Picogreen DNA assay, total DNA content of apoptosis-decellularized peripheral nerve; design: species or system Sprague Dawley rats
Protocol: Peripheral nerves were harvested from Sprague Dawley rats and decellularized according to an apoptosis-assisted protocol using 5 μM camptothecin in non-supplemented media at 37° C. for 1 day. Tissue in media without camptothecin, an apoptotic agent, was used as a control. Apoptotic agent treatment was succeeded by washes in saline buffered solutions to optimize cell removal. Furthermore, the tissue was treated with 75 u/mL DNAse for 24 hours to ensure DNA removal. The degree of apoptosis, cellular removal, and matrix preservation was assessed using immunochemistry on nerve tissue sections and fluorescence imaging (FIG. 2). Antibodies used to identify apoptosis, cell removal, and tissue preservation include those against active caspase 3 (Abcam); neurofilament (RT-97, DSHB) and 5100 (Dako); and laminin (Sigma), respectively. […] FIGS. 2B and 2C show nerves treated with 5 μM for 1 day, washed with a hypertonic, and either washed with a […] or treated for 24 hours with DNAse, respectively. […] FIGS. 2E and 2F show treatment with higher camptothecin (10 μM), again for 1 day, and washed similarly to tissue in FIGS. 2B and 2C. These images depict 1) apoptosis induction is necessary prior to washing to effectively remove cellular components and 2) combing apoptosis induction with washes in non-isotonic solutions achieves cellular removal of peripheral nerve tissue. Total DNA content was quantified using a Picogreen DNA assay (Life Technologies) according to manufacturer's instructions.

CC[C@@]1(O)C(=O)OCc2c1cc1n(c2=O)Cc2cc3ccccc3nc2-1 [camptothecin]
apoptosis ex vivo (caspase 3 activation and DNA fragmentation) [1]: sufficient to elicit aspects of apoptosis ex vivo
DNA removal [2]: greater than 90%
apoptosis by TUNEL assay [3]: enhanced apoptosis
reduction in DNA compared to fresh nerve ([4]; 5 μM camptothecin 1 day, hypertonic then hypotonic wash): 71.9%
reduction in DNA compared to fresh nerve ([4]; 5 μM camptothecin 1 day, hypotonic wash replaced with DNAse treatment): 95.1%
reduction in DNA compared to fresh nerve ([4]; 10 μM camptothecin 1 day, hypertonic then hypotonic wash): 57.3%
reduction in DNA compared to fresh nerve ([4]; 10 μM camptothecin 1 day, hypotonic wash replaced with DNAse treatment): 95.8%
